In the NIST ThermoML archive (doi:10.1021/je900199j):
Where “and” joins values, the source holds several entries; their conditions need not be identical. Equal entries are not always repeated.

Assay: mn = molality of the nth substance listed, in mol/kg
Settings: 101 kPa, Liquid; for speed of sound: Frequency=4 MHz

[Cl-].[K+] [potassium chloride] + O
m1 = 2.13
Settings	mass density [kg/m3]	speed of sound [m/s]
298.15 K	1087.7	1592.8
303.15 K	1085.7	1600.4
308.15 K	1083.6	1608
313.15 K	1081.3	1614
318.15 K	1078.8	1617.2
323.15 K	1076.1	1622

O=[N+]([O-])[O-].[K+] [potassium nitrate] + O
m1 = 2.19
Settings	mass density [kg/m3]	speed of sound
298.15 K	1115	1558.8 m/s
303.15 K	1112.5	1566.8 m/s
308.15 K	1109.8	1572.8 m/s and 1572.6 m/s
313.15 K	1107	1577.6 m/s
318.15 K	1104	1582 m/s
323.15 K	1100.9	1586.4 m/s
